Reference: BindingDB's records for doi:10.1016/s0960-894x(02)00302-5 (Wyeth Research, 2002)

Target: Proto-oncogene tyrosine-protein kinase Src (Homo sapiens, UniProt P12931)
Test: Kinase inhibition Assay
Conditions: pH 7.5; 30 °C
Protocol: Src kinase activity was measured in an ELISA format. IC50 is the inhibitor concentration which inhibits 50% of kinase activity that catalyzes the transfer of the terminal phosphate from ATP to the substrate.

Sequence of Proto-oncogene tyrosine-protein kinase Src (P12931 2-536 limits assumed): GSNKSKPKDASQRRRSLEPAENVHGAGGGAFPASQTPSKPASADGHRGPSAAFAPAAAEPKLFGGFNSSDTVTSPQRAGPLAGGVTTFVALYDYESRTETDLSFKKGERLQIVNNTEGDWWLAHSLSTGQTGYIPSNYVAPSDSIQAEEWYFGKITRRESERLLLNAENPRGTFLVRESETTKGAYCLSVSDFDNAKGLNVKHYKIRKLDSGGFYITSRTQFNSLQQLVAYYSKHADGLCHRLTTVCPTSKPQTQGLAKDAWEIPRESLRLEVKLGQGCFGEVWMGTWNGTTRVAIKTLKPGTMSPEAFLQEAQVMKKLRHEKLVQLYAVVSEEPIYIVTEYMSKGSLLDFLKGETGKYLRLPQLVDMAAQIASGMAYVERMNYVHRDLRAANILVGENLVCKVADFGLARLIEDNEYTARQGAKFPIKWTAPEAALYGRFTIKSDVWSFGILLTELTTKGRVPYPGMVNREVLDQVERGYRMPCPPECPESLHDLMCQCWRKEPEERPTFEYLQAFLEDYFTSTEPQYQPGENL

| Structure (SMILES) | IC50 |
| --- | --- |
| COc1cc(Nc2c(C#N)cnc3cc(-c4ccc(CN5CCCCC5)s4)ccc23)c(Cl)cc1Cl [4-[(2,4-dichloro-5-methoxyphenyl)amino]-7-[5-(piperidin-1-ylmethyl)thiophen-2-yl]quinoline-3-carbonitrile] | 4.2 nM |
| COc1cc(Nc2c(C#N)cnc3cc(-c4ccc(CN5CCSCC5)s4)ccc23)c(Cl)cc1Cl [4-[(2,4-dichloro-5-methoxyphenyl)amino]-7-[5-(thiomorpholin-4-ylmethyl)thiophen-2-yl]quinoline-3-carbonitrile] | 4.4 nM |
| COc1cc(Nc2c(C#N)cnc3cc(-c4ccc(CN5CCC(O)CC5)s4)ccc23)c(Cl)cc1Cl [4-[(2,4-dichloro-5-methoxyphenyl)amino]-7-{5-[(4-hydroxypiperidin-1-yl)methyl]thiophen-2-yl}quinoline-3-carbonitrile] | 2 nM |
